Experimental data: PMC10010643 (Cancer Chemotherapy and Pharmacology, 2023)
Where “and” joins values, the source holds several entries; their conditions need not be identical. Equal entries are not always repeated. Entries after “also recorded” stand apart in the source; their conditions may differ. Where two headings read alike, the source gives them in different places.

Assay: Plasma PK, Part A single oral doses in healthy participants
Format: in vivo, human
Conditions: for AUC(0-t) / AUC(0-inf) / Cmax / Tmax / Vd/F / half-life: human, plasma; for Vd/F: read-out: Vz/F, geometric mean (CV%)
Experimental: A further two cohorts were recruited. […] Each individual participated in one treatment period only, with the exception of the food-effect cohort (cohort A3) in which there were two treatment periods separated by at least 7 days washout. Participants resided at the Clinical Research Unit (CRU) from 1 day ahead of dosing (day − 1) to day 3 and returned for a follow-up visit 5–7 days after their final dose. For all cohorts, doses were administered in the fasted state in the morning of day 1 of Treatment Period 1. In the food-effect cohort, doses were given 30 min after the start of a high-fat breakfast (973 calories total: approximately 150 protein calories, 250 carbohydrate calories, and 500–600 fat calories) on day 1 of Treatment Period 2. For cohorts A1 to A5 in Treatment Period 1, dosing occurred such that one pair (one active and one placebo) were dosed at least 24 h before the remaining participants. Continuation to dose those who remained was at the investigator’s discretion. Escalating doses were administered following satisfactory sponsor and investigator review of the safety and tolerability data (up to 48 h post-final dose) and PK data (up to 24 h post-final dose) from the lower dose levels.
Blood samples (4 mL) were collected in K3 EDTA tubes by venipuncture or cannulation. In Part A, samples were taken pre-dose and at 0.5, 1, 1.5, 2, 3, 4, 6, 8, 12, 16, 24, 36 and 48 h post-dose. In part B, samples were taken pre-dose on days 1 (pre-AM dose) and 10 (pre-final dose) and at 0.5, 1, 1.5, 2, 3, 4, 6, 8 and 12 h post-AM dose for day 1 and post-final dose for day 10. Samples were also taken on days 4–9 pre-AM dose, on day 11 at 24 and 36 h post-final dose, and on day 12 at 48 h post-final dose. Blood samples were centrifuged at 1500 g for 10 min at […] and split into two plasma aliquots.
Urine was collected by spot collection in Part A only before dosing and between 0–6, 6–12, 12–24, and 24–48 h post-dose. Blood and urine aliquots were stored in polypropylene tubes at − 70 °C until bioanalysis.
Noncompartmental PK analysis was performed on individual plasma and urine concentration data, using Phoenix® WinNonlin® 8.1 software (Certara USA Inc., Princeton NJ). Plasma PK parameter endpoints for Part A included area under the plasma concentration–time curve (AUC) from time 0 to infinity (AUC0–∞), AUC from time 0 to the time of the last quantifiable concentration (AUC0–tlast), maximum observed plasma concentration (Cmax), time of the maximum observed plasma concentration (Tmax), terminal half-life in plasma (t½), apparent total plasma clearance (CL/F), and apparent volume of distribution (Vz/F). Urine PK parameters calculated in Part A included amount of drug excreted in urine (Ae), percentage of dose excreted unchanged in urine (fe) and renal clearance (CLR).
Dose proportionality was analyzed for exposure parameters after fasted doses. The power model was used on AUC0–∞, AUC0–tlast, and Cmax on day 1 in Part A. Data were analyzed over two dose ranges: 50–400 mg (50 mg capsules) and 5–50 mg (5 mg capsules). An analysis of variance was used on AUC0–τ and Cmax on day 10 in Part B. The effect of food on AUC0–∞, AUC0–tlast, and Cmax at 50 mg in Part A was investigated using a mixed model which included treatment as a fixed effect and subject as a random effect.

[1] = 50 mg after a high-fat meal vs fasted

With `OC[C@H]1O[C@H](Sc2cncc(Br)c2)[C@H](O)[C@@H](n2cc(-c3cc(F)c(F)c(F)c3)nn2)[C@H]1O` [GB1211] the “Delay of absorption in the fed state” value [1] was 2 h and ~ 2 h, the “Effect of food on systemic exposure” value [1] was “unaffected; also recorded: did not markedly affect systemic exposure; also recorded: minor food-effect on drug disposition” and the “Dose proportionality of systemic exposure” value (5–50 mg (5 mg capsule) dose range) was “dose-proportional manner”. The “Dose proportionality of systemic exposure” value (50–400 mg (50 mg capsule) dose range) was “sub-proportional manner”, the AUC(0-t) (oral, 5 mg, single dose 5 mg (1 × 5 mg), fasted, read-out: AUC0–tlast, geometric mean (CV%)) was 677 ng·h/mL and the AUC(0-inf) (oral, 5 mg, single dose 5 mg (1 × 5 mg), fasted, read-out: AUC0–∞, geometric mean (CV%)) was 712 ng·h/mL. It also gave a Cmax (oral, 5 mg, single dose 5 mg (1 × 5 mg), fasted, read-out: Cmax, geometric mean (CV%)) of 75.2 ng/mL, a Tmax (oral, 5 mg, single dose 5 mg (1 × 5 mg), fasted, read-out: Tmax, median (min–max)) of 2 h and a Vd/F (oral, 5 mg, single dose 5 mg (1 × 5 mg), fasted) of 114 L. It also gave a half-life (oral, 5 mg, single dose 5 mg (1 × 5 mg), fasted, read-out: t½, arithmetic mean (SD) (converted)) of 11.3 h, an AUC(0-t) (oral, 20 mg, single dose 20 mg (4 × 5 mg), fasted, read-out: AUC0–tlast, geometric mean (CV%)) of 3150 ng·h/mL and an AUC(0-inf) (oral, 20 mg, single dose 20 mg (4 × 5 mg), fasted, read-out: AUC0–∞, geometric mean (CV%)) of 3350 ng·h/mL. For the same molecule, the Cmax (oral, 20 mg, single dose 20 mg (4 × 5 mg), fasted, read-out: Cmax, geometric mean (CV%)) was 365 ng/mL, the Tmax (oral, 20 mg, single dose 20 mg (4 × 5 mg), fasted, read-out: Tmax, median (min–max)) was 1.75 h and the Vd/F (oral, 20 mg, single dose 20 mg (4 × 5 mg), fasted) was 104 L. It also gave a half-life (oral, 20 mg, single dose 20 mg (4 × 5 mg), fasted, read-out: t½, arithmetic mean (SD) (converted)) of 12.2 h, an AUC(0-t) (oral, 50 mg, Fasted, read-out: AUC0–tlast, geometric LS means) of 4180 ng·h/mL and an AUC(0-inf) (oral, 50 mg, Fasted, read-out: AUC0–∞, geometric LS means) of 4520 ng·h/mL. The Cmax (oral, 50 mg, Fasted, read-out: Cmax, geometric LS means) was 358 ng/mL, the AUC(0-t) (oral, 50 mg, Fed, read-out: AUC0–tlast, geometric LS means) was 4930 ng·h/mL and the AUC(0-inf) (oral, 50 mg, Fed, read-out: AUC0–∞, geometric LS means) was 5420 ng·h/mL. For the same molecule, the Cmax (oral, 50 mg, Fed, read-out: Cmax, geometric LS means) was 389 ng/mL, the AUC(0-t) (oral, 50 mg, single dose 50 mg (1 × 50 mg), fasted, read-out: AUC0–tlast, geometric mean (CV%)) was 4180 ng·h/mL and the AUC(0-inf) (oral, 50 mg, single dose 50 mg (1 × 50 mg), fasted, read-out: AUC0–∞, geometric mean (CV%)) was 4520 ng·h/mL. For the same molecule, the Cmax (oral, 50 mg, single dose 50 mg (1 × 50 mg), fasted, read-out: Cmax, geometric mean (CV%)) was 358 ng/mL, the Tmax (oral, 50 mg, single dose 50 mg (1 × 50 mg), fasted, read-out: Tmax, median (min–max)) was 3.04 h and the Vd/F (oral, 50 mg, single dose 50 mg (1 × 50 mg), fasted) was 200 L. For the same molecule, the half-life (oral, 50 mg, single dose 50 mg (1 × 50 mg), fasted, read-out: t½, arithmetic mean (SD) (converted)) was 12.7 h, the AUC(0-t) (oral, 50 mg, single dose 50 mg (1 × 50 mg), fed, read-out: AUC0–tlast, geometric mean (CV%)) was 4930 ng·h/mL and the AUC(0-inf) (oral, 50 mg, single dose 50 mg (1 × 50 mg), fed, read-out: AUC0–∞, geometric mean (CV%)) was 5420 ng·h/mL. For the same molecule, the Cmax (oral, 50 mg, single dose 50 mg (1 × 50 mg), fed, read-out: Cmax, geometric mean (CV%)) was 389 ng/mL, the Tmax (oral, 50 mg, single dose 50 mg (1 × 50 mg), fed, read-out: Tmax, median (min–max)) was 5 h and the Vd/F (oral, 50 mg, single dose 50 mg (1 × 50 mg), fed) was 169 L. For the same molecule, the half-life (oral, 50 mg, single dose 50 mg (1 × 50 mg), fed, read-out: t½, arithmetic mean (SD) (converted)) was 12.9 h, the AUC(0-t) (oral, 50 mg, single dose 50 mg (10 × 5 mg), fasted, read-out: AUC0–tlast, geometric mean (CV%)) was 6890 ng·h/mL and the AUC(0-inf) (oral, 50 mg, single dose 50 mg (10 × 5 mg), fasted, read-out: AUC0–∞, geometric mean (CV%)) was 7480 ng·h/mL. For the same molecule, the Cmax (oral, 50 mg, single dose 50 mg (10 × 5 mg), fasted, read-out: Cmax, geometric mean (CV%)) was 861 ng/mL, the Tmax (oral, 50 mg, single dose 50 mg (10 × 5 mg), fasted, read-out: Tmax, median (min–max)) was 1.75 h and the Vd/F (oral, 50 mg, single dose 50 mg (10 × 5 mg), fasted) was 133 L. For the same molecule, the half-life (oral, 50 mg, single dose 50 mg (10 × 5 mg), fasted, read-out: t½, arithmetic mean (SD) (converted)) was 13.8 h, the AUC(0-t) (oral, 100 mg, single dose 100 mg (2 × 50 mg), fasted, read-out: AUC0–tlast, geometric mean (CV%)) was 5910 ng·h/mL and the AUC(0-inf) (oral, 100 mg, single dose 100 mg (2 × 50 mg), fasted, read-out: AUC0–∞, geometric mean (CV%)) was 6380 ng·h/mL. For the same molecule, the Cmax (oral, 100 mg, single dose 100 mg (2 × 50 mg), fasted, read-out: Cmax, geometric mean (CV%)) was 525 ng/mL, the Tmax (oral, 100 mg, single dose 100 mg (2 × 50 mg), fasted, read-out: Tmax, median (min–max)) was 3.5 h and the Vd/F (oral, 100 mg, single dose 100 mg (2 × 50 mg), fasted) was 282 L. For the same molecule, the half-life (oral, 100 mg, single dose 100 mg (2 × 50 mg), fasted, read-out: t½, arithmetic mean (SD) (converted)) was 12.8 h, the AUC(0-t) (oral, 200 mg, single dose 200 mg (4 × 50 mg), fasted, read-out: AUC0–tlast, geometric mean (CV%)) was 11500 ng·h/mL and the AUC(0-inf) (oral, 200 mg, single dose 200 mg (4 × 50 mg), fasted, read-out: AUC0–∞, geometric mean (CV%)) was 12900 ng·h/mL. The Cmax (oral, 200 mg, single dose 200 mg (4 × 50 mg), fasted, read-out: Cmax, geometric mean (CV%)) was 1010 ng/mL, the Tmax (oral, 200 mg, single dose 200 mg (4 × 50 mg), fasted, read-out: Tmax, median (min–max)) was 3.5 h and the Vd/F (oral, 200 mg, single dose 200 mg (4 × 50 mg), fasted) was 344 L. It also gave a half-life (oral, 200 mg, single dose 200 mg (4 × 50 mg), fasted, read-out: t½, arithmetic mean (SD) (converted)) of 15.5 h, an AUC(0-t) (oral, 400 mg, single dose 400 mg (8 × 50 mg), fasted, read-out: AUC0–tlast, geometric mean (CV%)) of 19000 ng·h/mL and an AUC(0-inf) (oral, 400 mg, single dose 400 mg (8 × 50 mg), fasted, read-out: AUC0–∞, geometric mean (CV%)) of 21600 ng·h/mL. It also gave a Cmax (oral, 400 mg, single dose 400 mg (8 × 50 mg), fasted, read-out: Cmax, geometric mean (CV%)) of 1550 ng/mL, a Tmax (oral, 400 mg, single dose 400 mg (8 × 50 mg), fasted, read-out: Tmax, median (min–max)) of 4 h and a Vd/F (oral, 400 mg, single dose 400 mg (8 × 50 mg), fasted) of 398 L. The half-life (oral, 400 mg, single dose 400 mg (8 × 50 mg), fasted, read-out: t½, arithmetic mean (SD) (converted)) was 15.2 h, the Tmax (oral, 5–50 mg (5 mg capsule), single dose, fasted, read-out: Median Tmax, range across doses) was 1.75 to 2 h and the Tmax (oral, 50–400 mg (50 mg capsule), single dose, fasted, read-out: Median Tmax, range across doses) was 3.04 to 4 h. The half-life (po, single and multiple oral doses, fasted, read-out: Mean half-life, range across doses) was 11 to 16 h, the Tmax (po, single and multiple oral doses, fasted, read-out: Time of maximum plasma concentration (median), range across doses) was 1.75 to 4 h and the half-life (po, single oral dose, read-out: Arithmetic mean terminal half-life (t½), range across doses) was 11.3 to 15.5 h. The “CL/F, geometric mean (CV%)” value (single dose 5 mg (1 × 5 mg), fasted) was 7.02 (24.5) L/h, the “CL/F, geometric mean (CV%)” value (single dose 20 mg (4 × 5 mg), fasted) was 5.97 (10.2) L/h and the “CL/F, geometric mean (CV%)” value (single dose 50 mg (1 × 50 mg), fasted) was 11.1 (43.2) L/h. For the same molecule, the “CL/F, geometric mean (CV%)” value (single dose 50 mg (1 × 50 mg), fed) was 9.23 (21.5) L/h, the “CL/F, geometric mean (CV%)” value (single dose 50 mg (10 × 5 mg), fasted) was 6.69 (42.6) L/h and the “CL/F, geometric mean (CV%)” value (single dose 100 mg (2 × 50 mg), fasted) was 15.7 (21.1) L/h. The “CL/F, geometric mean (CV%)” value (single dose 200 mg (4 × 50 mg), fasted) was 15.5 (33.7) L/h and the “CL/F, geometric mean (CV%)” value (single dose 400 mg (8 × 50 mg), fasted) was 18.5 (25.0) L/h.
